Results published in patent publication US12617777B2, “GPR84 antagonists and uses thereof” (Liminal BioSciences Limited, priority 2021, dated 2026).

Target: T1, human GPR84 receptor (Homo sapiens, UniProt Q9NQS5)
T1 construct: host or cells: HEK293, transient transfection
Assay: Gαi biosensor BRET assay in HEK293 cells (antagonism of ZQ-16)
Type: cell-based
Settings: for inhibition at 2 µM: HEK293, single concentration 2 μM (designated A); for IC50: HEK293 cells, antagonism of 200 nmol/L ZQ-16; for inhibition at 10 µM: HEK293, single concentration 10 μM (designated F); for inhibition at 5 µM: HEK293, single concentration 5 μM (designated D); for inhibition at 25 µM: HEK293, single concentration 25 μM (designated I)
Method in brief: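 HEK293 cells transiently expressing human GPR84, Gαi2-Rluc8, GFP10-Gγ2 and Gβ1, in Tyrode's buffer pH 7.5. Compounds preincubated 5 min at 37° C, then 200 nmol/L ZQ-16 for 5 min at room temperature; coelenterazine 400A 5 μmol/L. BRET2 acceptor/donor ratio, background- and vehicle-corrected net BRET.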

T1 sequence (Q9NQS5 whole entry): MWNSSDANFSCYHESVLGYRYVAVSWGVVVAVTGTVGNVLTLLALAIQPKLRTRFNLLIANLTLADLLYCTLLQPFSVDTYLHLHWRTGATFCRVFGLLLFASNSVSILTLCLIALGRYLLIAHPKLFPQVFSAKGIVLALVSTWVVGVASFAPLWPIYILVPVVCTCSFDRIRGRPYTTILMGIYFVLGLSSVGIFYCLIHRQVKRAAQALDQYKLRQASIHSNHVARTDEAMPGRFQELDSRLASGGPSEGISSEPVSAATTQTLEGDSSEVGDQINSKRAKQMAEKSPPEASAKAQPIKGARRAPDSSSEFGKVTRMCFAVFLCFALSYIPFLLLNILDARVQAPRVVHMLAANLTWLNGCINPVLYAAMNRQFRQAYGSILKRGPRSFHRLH

SMILES	inhibition at 10 µM	further results
OCC#Cc1ccc(-c2cn(CC3OCC4(CCC4)O3)nn2)c(CC(F)(F)F)c1 (centres unmarked) [Compound I-808]	–	inhibition at 2 µM: > 75%; IC50: 300 to 1000 nM
Cc1c(-c2ccc(C#CCO)cc2)nnn1CC1CCCCO1 (centres unmarked) [Compound I-243]	25 to 50%	–
COCC1(C)CN(c2ccc(-c3cn(CC4OCC(C)(C)CO4)nn3)c(N(C)C)c2)C1 [Compound I-706]	> 75%	IC50: 300 to 1000 nM
Cc1cccc(-c2cn(CC#Cc3cnc(-c4cn(CC5CCCCO5)nn4)c(C)c3)nn2)c1 (centres unmarked) [Compound I-718]	–	inhibition at 2 µM: > 75%; IC50: 300 to 1000 nM
CN(c1ccc(C#N)cc1)c1cn(CC2OCC(C)(C)CO2)nn1 [Compound I-793, 4-((1-((5,5-dimethyl-1,3-dioxan-2-yl)methyl)-1H-1,2,3-triazol-4-yl)(methyl)amino)benzonitrile]	–	inhibition at 2 µM: > 75%
Cc1c(-c2cn(CC3CCCCO3)nn2)ccc(C#CC2CC2)c1F (centres unmarked) [Compound I-505]	–	inhibition at 2 µM: ≤ 25%
Cc1cc(N2CCC3(CC2)CNC3)ccc1-c1cn(CC2CCCCO2)nn1 (centres unmarked) [Compound I-186]	–	inhibition at 5 µM: ≤ 25%
Cc1cc(OCc2ccccn2)ccc1-c1cn(CC2CCCCO2)nn1 (centres unmarked) [Compound I-54]	–	inhibition at 25 µM: 50 to 75%; IC50: 300 to 1000 nM
Cc1cc(N2CCN(Cc3ccccn3)CC2)ccc1-c1cncn1CC1OCC(C)(C)CO1 [Compound I-683]	≤ 25%	–
FC(F)(F)COc1ccc(-c2cn(CC3CCCCO3)nn2)cc1 (centres unmarked) [Compound I-51]	–	inhibition at 25 µM: ≤ 25%
C(#CC1CC1)c1ccc(-c2cn(CC3OCC4(CCC4)O3)nn2)c(OC2CC2)c1 (centres unmarked) [Compound I-798]	> 75%	–
Cc1cc(C#CC2CC2)cnc1-c1cn(CC2OCC3(CCC3)CO2)nn1 [Compound I-840]	–	inhibition at 2 µM: > 75%
CC(C)Oc1cc(N2CC(C)(CO)C2)cnc1-c1cn(CC2OCC(C)(C)CO2)nn1 [Compound I-694]	> 75%	–
Cc1cc(N2C3CCC2CN(Cc2ccccn2)C3)ccc1-c1cn(CC2CCCCO2)nn1 (centres unmarked) [Compound I-430]	25 to 50%	IC50: 300 to 1000 nM
Cc1c(-c2ccc(C#CC3CC3)cc2)nnn1CC1CCCCS1(=O)=O (centres unmarked) [Compound I-574]	≤ 25%	–
Cn1cc(-c2ccc(C#CC3CC3)cc2)nc1CC1CCCCO1 (centres unmarked) [Compound I-337]	–	inhibition at 5 µM: ≤ 25%
CC(C)Oc1cc(C#CC2CC2)cnc1-c1cn(CC2OCC3(CCC3)O2)nn1 (centres unmarked) [Compound I-797]	> 75%	IC50: ≤ 300 nM
CC1(C)COC(Cn2cc(-c3ncc(C#CCN4CC(C)(C)C4)cc3CC(F)(F)F)nn2)OC1 [Compound I-762]	–	IC50: ≤ 300 nM
CC(C)Oc1cc(C#CCN2CC(C)(C)C2)cnc1-c1cn(C[C@H]2CCCCO2)nn1 [Compound I-498]	–	inhibition at 2 µM: 50 to 75%; IC50: 300 to 1000 nM

SMILES	inhibition at 10 µM	further results
CCc1cc(C#CCN(C)CC2CC2)cnc1-c1cn(CC2CCCCO2)nn1 (centres unmarked) [Compound I-276]	> 75%	–
Cc1cc(OC2CN(Cc3ccccn3)C2)ccc1-c1cn(CC2CCCCO2)nn1 (centres unmarked) [Compound I-514]	–	inhibition at 2 µM: ≤ 25%
C(#CC1CC1)c1ccc(-c2cn(C[C@H]3COc4ccccc4O3)nn2)cc1 [Compound I-23]	–	inhibition at 25 µM: ≤ 25%
COC(c1cn(CC2OCC(C)(C)CO2)nn1)c1cc(C#CC2CC2)c(F)cc1C (centres unmarked) [Compound I-724]	–	inhibition at 2 µM: > 75%; IC50: ≤ 300 nM
Cc1cc(C#CC2CC2)ccc1-c1cn(CCOCC2CCCCO2)nn1 (centres unmarked) [Compound I-85]	–	inhibition at 25 µM: 25 to 50%
Cc1cc(C#CC2CC2)cnc1-c1cn(CC2OCC(C)(C)O2)nn1 (centres unmarked) [Compound I-601]	≤ 25%	–
COCC#Cc1cnc(-c2cn(CC3OCC4(CC4)CO3)nn2)c(OC2CC2)c1 [Compound I-833]	≤ 25%	IC50: ≤ 300 nM
COC(c1cn(CC2OCC(F)(F)CO2)nn1)c1cc(C#CC2CC2)ccc1C (centres unmarked) [Compound I-725]	> 75%	IC50: 300 to 1000 nM
CC(C)Oc1cc(N2CC(C)(CO)C2)cnc1-c1cn(CC2OCC3(CCC3)O2)nn1 (centres unmarked) [Compound I-809]	–	inhibition at 2 µM: > 75%
C(#CC1CC1)c1ccc(-n2cc(CC3CCCO3)nn2)cc1 (centres unmarked) [Compound I-295]	–	inhibition at 25 µM: ≤ 25%
Cc1cc(N2CC(C)(CO)C2)ccc1-c1cn(CC2OCC(C)(C)CO2)nn1 [Compound I-614]	50 to 75%	–
Cc1ccc(C#CC2CC2)cc1Cc1cn(CC2OCC(C)(C)CO2)nn1 [Compound I-669, 4-(5-(cyclopropylethynyl)-2-methylbenzyl)-1-((5,5-dimethyl-1,3-dioxan-2-yl)methyl)-1H-1,2,3-triazole]	–	inhibition at 2 µM: > 75%; IC50: ≤ 300 nM
C(#CC1CC1)c1ccc(-c2cn(CC3OCCCO3)nn2)cc1 [Compound I-102]	25 to 50%	–
COCC1CN(c2ccc(-c3cn(CC4OCC(C)(C)CO4)nn3)c(N(C)C)c2)C1 [Compound I-755]	> 75%	–
CN(C)c1cc(C#CC2CC2)ccc1-c1cn(CC2CCOCC2)nn1 [Compound I-200]	25 to 50%	–
CCc1cc(N2CC(C)(C)C2)ccc1-c1cn(CC2Oc3ccccc3O2)nn1 [Compound I-647]	–	inhibition at 2 µM: > 75%; IC50: 300 to 1000 nM
Cc1cc(N2CCN(Cc3ccccn3)CC2)ccc1-c1cn(CC2CC(C)(C)O2)nn1 (centres unmarked) [Compound I-561]	> 75%	IC50: > 3000 nM
Cc1cc(C#CCNC(=O)c2ccccc2)ccc1-c1cn(CC2CCCCO2)nn1 (centres unmarked) [Compound I-209]	–	IC50: > 2000 nM

Now from value to molecule, other results behind:

inhibition at 10 µM	SMILES	further results
25 to 50%	CC(c1cn(CC2CCCCO2)nn1)c1cccc(C#CC2CC2)n1 (centres unmarked) [Compound I-416]	–
≤ 25%	COC(=O)N1CCOC(Cn2cc(-c3ccc(C#CC4CC4)cc3C)nn2)C1 (centres unmarked) [Compound I-105]	–
25 to 50%	CC(=O)NCC#Cc1ccc(-c2cn(C[C@H]3CCCCO3)nn2)c(C)c1 [Compound I-193]	–
50 to 75%	Cc1cc(N2CC3(CCN(C(=O)c4ccccc4)CC3)C2)ccc1-c1cn(CC2CCCCO2)nn1 (centres unmarked) [Compound I-310]	IC50: 1000 to 3000 nM
> 75%	Cc1cc(N2CCN(Cc3ccn(C)n3)CC2)ccc1-c1cn(CC2CCCCO2)nn1 (centres unmarked) [Compound I-582]	–
≤ 25%	Cc1cc(C2CCN(Cc3ccccn3)CC2)ccc1-c1cn(CC2CCCCO2)nn1 (centres unmarked) [Compound I-440]	–
25 to 50%	Cc1cc(C#CC2CC2)ccc1-c1cn(C[C@H]2CC[C@@H](C)O2)nn1 [Compound I-225]	–
≤ 25%	Cc1cc(N2CC(C)(O)C2)ccc1-c1cn(CC2CCCCO2)nn1 (centres unmarked) [Compound I-524]	–
25 to 50%	CC(=O)NCC1(C)CN(c2ccc(-c3cn(CC4CCCCO4)nn3)c(C)c2)C1 (centres unmarked) [Compound I-447]	–
≤ 25%	CNC1CN(c2ccc(-c3cn(CC4CCCCO4)nn3)c(C)c2)C1 (centres unmarked) [Compound I-184]	–
≤ 25%	Cc1cc(N2CCCC23CN(C)C3)ccc1-c1cn(CC2CCCCO2)nn1 (centres unmarked) [Compound I-151]	–
≤ 25%	COc1ccc(-c2cn(CC3CCCCO3)nn2)c(C)c1 (centres unmarked) [Compound I-412]	–
> 75%	Cc1cc(C#CC2CCC2)ccc1-c1cn(CC2CCCCO2)nn1 (centres unmarked) [Compound I-540]	–
> 75%	CC(C)c1cc(N2CC(C)(C)C2)cnc1-c1cn(CC2CCCCO2)nn1 (centres unmarked) [Compound I-461]	–
> 75%	CCc1cc(C#CCN2CC(C)(C)C2)cnc1-c1cn(C[C@H]2CCCCO2)nn1 [Compound I-277]	–
25 to 50%	Cc1cc(C#CC2CC2)ccc1Cc1cn(CC2CCCCO2)nn1 (centres unmarked) [Compound I-300]	–
≤ 25%	Cc1cc(C#CC2CC2)ccc1-c1cn(CC2COCCN2)nn1 (centres unmarked) [Compound I-515]	–
≤ 25%	Cc1cc(C#CC2CC2)ccc1-c1cn(CC2CCCCO2)nc1C (centres unmarked) [Compound I-326]	–

inhibition at 10 µM	SMILES	further results
≤ 25%	NC(=O)c1cc(C#CC2CC2)ccc1-c1cn(CC2CCCCO2)nn1 (centres unmarked) [Compound I-234]	–
25 to 50%	Cc1cc(N2CCN(Cc3ccccc3)CC2)ccc1-c1cn(CC2CCCCO2)nn1 (centres unmarked) [Compound I-140]	–
25 to 50%	Cc1cc(N2CC3(COC3)C2)ccc1-c1cn(CC2CCCCO2)nn1 (centres unmarked) [Compound I-113]	–
50 to 75%	Cc1cc(N2CC(C)(C)C2)ccc1-c1cn(CC2OCC(F)(F)CO2)nn1 [Compound I-687]	–
≤ 25%	Cc1cc(N2CCCC23CNC3)ccc1-c1cn(CC2CCCCO2)nn1 (centres unmarked) [Compound I-150]	–
50 to 75%	Cc1cc(F)c(C#CC2CC2)cc1-c1cn(CC2CCCCO2)nn1 (centres unmarked) [Compound I-249]	–
> 75%	COC(C)(c1cccc(C#CC2CC2)c1)c1cn(CC2CCCCO2)nn1 (centres unmarked) [Compound I-631]	–
> 75%	Cc1cc(N2CC(C)(CO)C2)c(F)cc1-c1cn(CC2CCCCO2)nn1 (centres unmarked) [Compound I-730]	IC50: 300 to 1000 nM
≤ 25%	CC(=O)N1CCCCC1Cn1cc(-c2ccc(C#CC3CC3)cc2C)nn1 (centres unmarked) [Compound I-139]	–
≤ 25%	Cc1cc(C#CC2CC2)ccc1-c1cn(CC2COCCN2C)nn1 (centres unmarked) [Compound I-527]	–
50 to 75%	CC(c1cc(C#CC2CC2)ccn1)c1cn(CC2CCCCO2)nn1 (centres unmarked) [Compound I-633]	–
≤ 25%	Cc1cc(N2CC(N(C)Cc3ccccc3)C2)ccc1-c1cn(CC2CCCCO2)nn1 (centres unmarked) [Compound I-185]	–
> 75%	Cc1cc(N2CC(C)(C)C2)ccc1-c1cn(CC2OCC(C)(C)CO2)nn1 [Compound I-665]	IC50: ≤ 300 nM
≤ 25%	Cc1cc(C2CCOCC2)ccc1-c1cn(CC2CCCCO2)nn1 (centres unmarked) [Compound I-485]	–
25 to 50%	Cc1cc(C#CC2CC2)ccc1-c1cn(CC2CCCOC2)nn1 (centres unmarked) [Compound I-364]	–
> 75%	CCn1c(C#CC2CC2)cnc1-c1cn(CC2CCCCO2)nn1 (centres unmarked) [Compound I-285]	–
≤ 25%	C(#CC1CC1)c1csc(-c2cn(CC3CCCCO3)nn2)n1 (centres unmarked) [Compound I-241]	–
25 to 50%	Cc1cc(C#CCN2CCCCC2=O)ccc1-c1cn(CC2CCCCO2)nn1 (centres unmarked) [Compound I-205]	–
